Experimental data from PubChem BioAssay AID1850 (Southern Research Specialized Biocontainment Screening …, 2009).
Where “and” joins values, the source holds several entries; their conditions need not be identical. Equal entries are not always repeated.

Tested on: Salmonella Typhi PhoP-promoter GFP reporter, fluorescence, 4 h
Assay: Inhibition of PhoP regulon, Salmonella typhi GFP reporter cells, confirmation, 4 h (AID 1850)

## CN1CCc2nc(SCC(=O)Nc3cccc(F)c3)c(C#N)c(-c3cccs3)c2C1
  IC50: 86.2 µM

## O=[N+]([O-])c1cc(Cl)cc(/C=N/NC(=S)Nc2ccc(S(=O)(=O)N3CCOCC3)cc2)c1O
  IC50: 80.3 µM

## CC[C@H]1OC(=O)[C@H](C)[C@@H](O[C@H]2C[C@@](C)(OC)[C@@H](O)[C@H](C)O2)[C@H](C)[C@@H](O[C@@H]2O[C@H](C)C[C@H](N(C)C)[C@H]2O)[C@](C)(OC)C[C@@H](C)C(=O)[C@H](C)[C@@H](O)[C@]1(C)O
  IC50: 52 µM

## c1ccc(CN2CCN(c3nc(NCc4ccco4)c4ccccc4n3)CC2)cc1
  IC50: 38 µM

## CCOc1cc(CNC(C)(C)CO)cc(Br)c1OCc1ccc(Cl)cc1Cl
  IC50: 43.6 µM

## CC(C)(C)CC(C)(C)c1ccc(OCCOCC[N+](C)(C)Cc2ccccc2)cc1
  IC50: 20.4 µM

## Cc1cc(C)c2c(N)c3ccccc3nc2n1
  IC50: 77.3 µM

## CC(C)[C@@H]1CC[C@@H](C)C[C@H]1OC(=O)C[n+]1cc(-c2ccc(Cl)cc2)n2c1CCCCC2
  IC50: 67.2 µM

## C#CCOCCOCCOCCNc1nc(N2CCN(C(=O)CCCCCCCCCCNC(=O)[C@H]([C@@H](C)CC)n3cc(CCCCCN)nn3)CC2)nc(N2CCN(C(=O)CCCCCCCCCCNC(=O)[C@H]([C@@H](C)CC)n3cc(CCCCN=C(N)N)nn3)CC2)n1
  IC50: 20.1 µM

## O=C(N/N=C/c1cc([N+](=O)[O-])ccc1O)C(O)(c1ccccc1)c1ccccc1
  IC50: 73.4 µM

## N=c1n(Cc2ccc(Cl)cc2)c2ccccc2n1CC(O)COc1ccccc1 (stereo not given)
  IC50: 55.4 µM

## O=C(N/N=C/c1cc(Cl)cc(Cl)c1O)c1ccncc1
  IC50: 35.2 µM

## C#CCOCCOCCOCCNc1nc(N2CCN(C(=O)C(Cc3ccc(O)cc3)n3cc(C(N)CC(C)C)nn3)CC2)nc(N2CCN(C(=O)C(Cc3cc4ccccc4[nH]3)n3cc(C(N)Cc4ccc(O)cc4)nn3)CC2)n1 (stereo not given)
  IC50: 130 µM

## CN(C)CCCN(C(=O)COc1ccccc1)c1nc2ccc(Cl)cc2s1
  IC50: 77.8 µM

## CN(Cc1ccccc1)CC(O)COc1ccc(CNCc2ccc(Cl)s2)cc1 (stereo not given)
  IC50: 124 µM

## CC[n+]1c(/C=C/C=C/c2ccc(N(C)C)cc2)sc2ccccc21
  IC50: 39.2 µM

## CCC(C)NC(=O)c1cn(CC)c2cc(N3CCN(C)CC3)c(F)cc2c1=O (stereo not given)
  IC50: 20.7 µM

## COc1c(N2CCN(C(=S)Nc3ccc(F)cc3)C(C)C2)c(F)cc2c(=O)c(C(=O)O)cn(C3CC3)c12 (stereo not given)
  IC50: 1.72 µM

## Cc1cc(C)n(/N=C/c2cc(Cl)cc(Cl)c2O)c(=O)c1
  IC50: 137 µM

## Cc1ccc(C)c(N/C(N)=N/c2nc(C)cc(C)n2)c1
  IC50: 141 µM

## Cc1ccc(C)c(NC(=O)c2ccccc2O)c1
  IC50: 75.6 µM

## CC(NCC(O)COc1ccc2ccccc2c1)c1ccccc1 (stereo not given)
  IC50: 79.8 µM

## O=Nc1c(O)c2ccccc2c2ccccc12
  IC50: 19.7 µM

## O=S1(=O)CC=C(CSC(=S)NC2CCS(=O)(=O)C2)C1 (stereo not given)
  IC50: 78.4 µM

## CC(Nc1nc(N2CCCCC2)nc2ccccc12)c1ccccc1 (stereo not given)
  IC50: 39.2 µM

## CCn1cc(C(=O)O)c(=O)c2cc3c(cc21)OCO3
  IC50: 43.3 µM

## Cc1ccccc1C(=O)Nc1cccc(C(=O)N/N=C/c2cc(Cl)cc([N+](=O)[O-])c2O)c1
  IC50: 47.6 µM

## CC(NCc1ccc(-c2ccccc2)cc1)C(O)c1ccccc1 (stereo not given)
  IC50: 63.6 µM

## O=C(N/N=C\c1cccc([N+](=O)[O-])c1O)C1COc2ccccc2O1 (stereo not given)
  IC50: 27.4 µM

## CCCCOc1ccc(Br)cc1CSC(=N)N
  IC50: 35 µM

## C/C(=N\Nc1ccc2nncn2n1)c1ccccn1
  IC50: 65.7 µM

## CN(C)CC/C=C1\c2ccccc2Sc2cc(F)c(Cl)cc21
  IC50: 26.5 µM

## CC(C)Oc1ccc(Cc2cnc(N)nc2N)cc1
  IC50: 67.5 µM

## CCCNC(=O)c1cn(CC)c2cc(N3CCN(C)CC3)c(F)cc2c1=O
  IC50: 13.4 µM

## CCCCC(=O)NC(=S)NNC(=O)CC
  IC50: 70.2 µM

## CCCCCC(CC(=O)NO)C(=O)NC(C(=O)N1CCCC1CO)C(C)C (stereo not given)
  IC50: 15.5 µM

## COc1ccc(CNc2ncnc3c2[nH]c2ccccc23)cc1
  IC50: 84.5 µM

## CN(C)CCNC(=O)/C(=C/c1ccc(-c2ccc(Cl)cc2)o1)NC(=O)c1ccccc1
  IC50: 78 µM

## O=C(/C=C(\O)c1ccccc1)C(=O)NNC(=O)c1ccccc1
  IC50: 23.8 µM

## CC(=O)NC(c1cccs1)c1cc([N+](=O)[O-])c2cccnc2c1O (stereo not given)
  IC50: 31.7 µM

## O=C(Cc1ccccc1)NNC(=S)NC(=O)c1cccs1
  IC50: 46.5 µM

## O=C(C[n+]1cc(-c2ccc(Cl)cc2)n2c1CCC2)N1c2ccccc2Sc2ccccc21
  IC50: 81.5 µM

## COc1c(N2CCN(C(=S)NCc3ccccc3)C(C)C2)c(F)cc2c(=O)c(C(=O)O)cn(C3CC3)c12 (stereo not given)
  IC50: 36.1 µM

## CN1CCN(c2c(F)cc3c(=O)c(C(=O)O)cn4c3c2OCN4C)CC1
  IC50: < 0.23 µM

## Cc1ccc(Nc2c3c(nc4ccccc24)CCC3)cc1
  IC50: 19.1 µM

## Nc1nc2ccccc2n1CCOc1ccccc1Cl
  IC50: 73.3 µM

## O=C(Oc1ccccc1)c1cc2ccccc2o1
  IC50: 38.1 µM

## O=C(Nc1nnc(-c2cccs2)o1)c1cccc(Oc2ccccc2)c1
  IC50: 61.1 µM

## Cc1cc(C)n(-c2nc(NCCN(C)C)c3c4c(sc3n2)CCCC4)n1
  IC50: 45.3 µM

## CN(C)CCCNc1cc(C(C)(C)C)nc2c(-c3ccccc3)cnn12
  IC50: 31.5 µM

## COc1ccccc1Nc1nc(NCc2ccco2)c2ccccc2n1
  IC50: 19.6 µM

## O=C(NC(=S)NNC(=O)c1cccs1)c1ccc(Br)o1
  IC50: 64.3 µM

## C#CCOCCOCCOCCNc1nc(N2CCN(C(=O)CCCCCCCCCCNC(=O)[C@H](CCCCN)n3cc(CCO)nn3)CC2)nc(N2CCN(C(=O)CCCCCCCCCCNC(=O)[C@H](CCCCN)n3cc(C[C@@H](C)CC)nn3)CC2)n1
  IC50: 31.9 µM

## CC(=O)NC(=S)NNC(=O)c1ccc(Br)cc1
  IC50: 34.9 µM

## O=C(N/N=C\C=C\c1ccc([N+](=O)[O-])o1)c1cccs1
  IC50: 18.7 µM

## CCCCCOc1ccc(CSC(=N)N)cc1[N+](=O)[O-]
  IC50: 57.7 µM

## NC1CCN(c2nc3c(cc2F)c(=O)c(C(=O)O)cn3-c2ccc(F)cc2F)C1 (stereo not given)
  IC50: < 0.23 µM

## CCCCCC[N+](C)(C)CC/C=C1/c2ccccc2Sc2ccc(Cl)cc21
  IC50: 38.1 µM

## CC1(C)CC(=O)c2c(nc3ccccc3c2N)C1
  IC50: 71.6 µM

## Nc1nonc1C(=O)N/N=C/c1cc(Br)ccc1O
  IC50: 10.5 µM

## CC(C)(c1ccccc1)c1ccc(OCCCN2CCNCC2)cc1
  IC50: 56.2 µM

## Oc1ccc(/C=N/Nc2nccnc2Cl)c(O)c1
  IC50: 70.4 µM

## Cc1ccc(OCC(=O)N/N=C\c2c(C)[nH]n(-c3ccccc3)c2=O)c([N+](=O)[O-])c1
  IC50: 66.6 µM

## COc1cc(/C=N/NC(=O)c2cncc(Br)c2)cc([N+](=O)[O-])c1O
  IC50: 63.5 µM

## COc1c2ccccc2nc2ccccc12
  IC50: 25.6 µM

## Cc1cc(C)n2nc(S(=O)(=O)Nc3c(Cl)cccc3Cl)nc2n1
  IC50: 63.5 µM

## CC[C@@H](C)[C@H](CNC)NC[C@@H](Cc1cccc2ccccc12)NCCc1cccc(C(F)(F)F)c1
  IC50: 19.9 µM

## Cc1cc(C)n(-c2nc(SCCN(C)C)c3c4c(sc3n2)CCCC4)n1
  IC50: 41.2 µM

## CCCCCCCCNC(C)C(O)c1ccc(SC(C)C)cc1 (stereo not given)
  IC50: 25.2 µM

## CCCCCCCCCCOC(=O)Cn1c(COc2ccc(OC)cc2)[n+](C)c2ccccc21
  IC50: 22.7 µM and 14.4 µM

## CCn1cc(C(=O)O)c(=O)c2cc(F)c(N3CCN(C(=S)NC(=O)c4ccccc4C)CC3)cc21
  IC50: 14.8 µM

## Nc1ncn([C@@H]2O[C@H](CO)[C@@H](O)[C@H]2O)c(=O)n1
  IC50: 42.5 µM

## O=c1c2ccccc2nc(N/N=C/c2c(O)ccc3ccccc23)n1O
  IC50: 24.9 µM

## O=C(Nc1c2ccccc2nc2ccccc12)C(Cl)(Cl)Cl
  IC50: 63.5 µM

## Cc1cc(=O)[nH]c(-n2nc(C)cc2C)n1
  IC50: 75.5 µM
